One assay has as its target HER2 kinase (Homo sapiens (Human), UniProt P04626). The assay is described as follows: Inhibition of HER2 kinase activity (ULight-labeled PolyGT substrate). Type of assay: biochemical. The note with it: HER2 kinase 10 nM, ATP 10 μM, 2 hours. The method in brief:
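HER2 kinase at 10 nM with 10 μM ATP and 100 nM ULight-PolyGT, 5 min enzyme–compound preincubation, then 2 h reaction at room temperature in the dark. Compounds at 11 3-fold concentrations, 2.5 μM top to 0.042 nM, 1% DMSO, duplicates. TR-FRET 665/615 ratio; IC50 from inhibition versus DMSO and no-compound controls.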

For the next assay, the target named is EGFR kinase (Homo sapiens (Human), UniProt P00533). Put plainly: Inhibition of EGFR kinase activity (ULight-labeled JAK-1 (Tyr1023) peptide substrate). The note with it: EGFR kinase 0.35 nM, ATP 150 μM, 2 hours. Type of assay: biochemical. As for the experimental part:
The assay for the inhibition of EGFR and HER2 kinase activity by small molecular compounds was carried out using the method as follows:
1) Dilution of the compounds
In a 96-well plate a, the compounds were diluted with DMSO using a 3-fold gradient dilution to form 11 concentrations, the 12th concentration is pure DMSO (as a positive control); and in a new 96-well plate b the above solutions were diluted 25 times with ultrapure water (DMSO concentration is 4%).
2) Transferring the compounds to 384-well plate
The compound solutions diluted with ultrapure water in the 96-well plate b above was transferred to the corresponding wells of a 384-well plate in duplicate.
3) Addition of 4×kinase solution: 2.5 μl of the above 4× kinase solution was taken using multichannel pipette and added to the corresponding reaction wells of the 384-well plate, mixed well and pre-reacted at room temperature for 5 minutes.
4) Addition of 2×substrate/ATP mixed solution: 5 μl of the above 2×substrate/ATP mixed solution was taken using multichannel pipette and added to the corresponding reaction wells of the 384-well plate.
5) Negative control: negative control wells were set in the 384-well plate, and 2.5 μl 4×substrate, 2.5 μl 4×enzyme solution, 2.5 μl 1×Kinase Assay Buffer and 2.5 μl ultrapure water containing 4% DMSO were added to each well.
6) Mixed by centrifugation and kept at room temperature for 2 hours in the dark.
7) Termination of the enzymatic reaction:
5 μl of the above 4× stop solution was pipetted to the corresponding wells of the 384-well plate, centrifuged and mixed, and reacted at room temperature for 5 minutes.
5 μl of the above 4× detection solution was pipetted into the corresponding wells of the 384-well plate, centrifuged and mixed, and reacted at room temperature for 1 hour.
9) The 384-well plate was placed into a microplate reader and the signal was detected using the corresponding program.
10) IC50 analysis: Well reading value=10000*EU665 value/EU615 value Inhibition rate=(reading value of positive control well−reading value of experimental well)/(reading value of positive control well−reading value of negative control well)*100% Corresponding IC50s can be calculated by entering the drug concentrations and the corresponding inhibition rates into GraphPad Prism 5.
Conditions of experiment for screening EGFR kinase inhibitory molecules:
The final concentration of EGFR kinase in the reaction system is 0.35 nM, and the final concentration of ATP is 150 μM, the final concentration of substrate ULight™-labeled JAK-1 (Tyr1023) Peptide is 100 nM, and the enzymatic reaction time is 2 hours.
The maximum final concentration of the compound in the reaction system is 2.5 μM, 11 concentrations were made with a 3-fold gradient dilution, and the minimal final concentration is 0.042 nM. The final concentration of DMSO is 1%.

The subject of the next assay is BT474 cells. Put plainly: Inhibition of cell proliferation, BT474 (CCK-8, 72 h). Type of assay: cell-based. The note with it: Homo sapiens, BT-474, 72 h incubation. As for the experimental part: The assay for the inhibition of cell proliferation by small molecular compounds was carried out using the method as follows:
1. 600 μL pancreatin was added to a T75 cell culture flask, which was digested in a 37° C. incubator for about 1 min before 5 mL of DMEM complete culture solution was added, blew evenly, transferred to a 15 mL centrifuge tube, and centrifuged at 1000 rpm for 4 min;
2. The supernatant was removed and 5 mL DMEM complete culture solution was added, blew evenly, and 10 μL cell suspension was taken and mixed with 10 μL 0.4% Trypan Blue, and counted using a cell counter;
3. BT474 and HCC827 cell lines were seeded in 96-well plates at a cell density of 10,000 and 3000 cells/well/80 μL, respectively, and cultured overnight. Only sterile water was added to the 36 wells on the periphery of the 96-well plate without adding cells, and only the 60 wells in the center of the 96-well plate were used for cell assays and controls;
4. Dilution of compounds: the compounds were diluted with a 3-fold dilution to make 10 concentrations in total with an initial concentration of 10 mM;
5. 20 μL of different compounds with different concentrations were added to each well, and 20 μL of complete culture solution was added to the remaining wells. The final concentration of DMSO in each well is 0.25%;
6. After 72 h of incubation, 10 μL CCK-8 reagent was added to each well, and incubated at 37° C. for 1-2 h; and the OD value was read at 450 nm;
7. Cell survival rate (%)=[(As−Ab)/(Ac−Ab)]*100%
As: Assay well (medium containing cell, CCK-8, compound)
Ac: Control well (medium containing cell, CCK-8)
Ab: Blank well (CCK-8, medium without cell and compound)
8. The value was imported into Graphpad Prism5 software for the calculation of IC50s (compound concentration at which 50% maximum survival rate is observed).

Sequence of EGFR kinase (P00533 25-1210): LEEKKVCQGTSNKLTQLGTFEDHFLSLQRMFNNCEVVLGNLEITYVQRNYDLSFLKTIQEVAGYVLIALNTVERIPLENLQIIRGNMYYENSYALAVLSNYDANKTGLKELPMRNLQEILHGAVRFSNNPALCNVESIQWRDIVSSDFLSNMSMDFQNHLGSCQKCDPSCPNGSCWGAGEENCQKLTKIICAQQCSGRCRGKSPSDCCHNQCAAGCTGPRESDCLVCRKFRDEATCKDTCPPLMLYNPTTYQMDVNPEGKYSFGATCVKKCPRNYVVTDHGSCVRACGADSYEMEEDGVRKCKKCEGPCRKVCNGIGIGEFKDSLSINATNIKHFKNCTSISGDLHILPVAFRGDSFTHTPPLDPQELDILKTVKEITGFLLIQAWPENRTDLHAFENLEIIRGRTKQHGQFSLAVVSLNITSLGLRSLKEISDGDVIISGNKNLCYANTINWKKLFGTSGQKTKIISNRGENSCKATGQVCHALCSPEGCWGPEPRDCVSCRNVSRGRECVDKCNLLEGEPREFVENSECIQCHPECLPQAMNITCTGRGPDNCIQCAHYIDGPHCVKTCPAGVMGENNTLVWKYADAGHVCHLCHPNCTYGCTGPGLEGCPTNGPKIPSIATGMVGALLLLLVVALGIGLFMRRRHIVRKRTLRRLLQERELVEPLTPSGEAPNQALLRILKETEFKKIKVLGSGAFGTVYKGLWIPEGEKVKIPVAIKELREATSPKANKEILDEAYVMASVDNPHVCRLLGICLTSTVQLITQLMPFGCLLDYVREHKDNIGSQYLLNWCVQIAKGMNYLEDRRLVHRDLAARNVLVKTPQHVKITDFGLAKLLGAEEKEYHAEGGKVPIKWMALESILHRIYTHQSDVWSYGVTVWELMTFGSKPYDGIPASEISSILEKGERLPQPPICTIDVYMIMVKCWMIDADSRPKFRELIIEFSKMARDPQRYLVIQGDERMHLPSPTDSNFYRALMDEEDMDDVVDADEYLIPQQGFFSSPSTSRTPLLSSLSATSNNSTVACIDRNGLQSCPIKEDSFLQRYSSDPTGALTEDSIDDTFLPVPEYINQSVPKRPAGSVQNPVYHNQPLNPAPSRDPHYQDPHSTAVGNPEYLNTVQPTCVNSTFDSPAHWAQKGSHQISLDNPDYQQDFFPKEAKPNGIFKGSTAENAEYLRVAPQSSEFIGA
Sequence of HER2 kinase (P04626 23-1255): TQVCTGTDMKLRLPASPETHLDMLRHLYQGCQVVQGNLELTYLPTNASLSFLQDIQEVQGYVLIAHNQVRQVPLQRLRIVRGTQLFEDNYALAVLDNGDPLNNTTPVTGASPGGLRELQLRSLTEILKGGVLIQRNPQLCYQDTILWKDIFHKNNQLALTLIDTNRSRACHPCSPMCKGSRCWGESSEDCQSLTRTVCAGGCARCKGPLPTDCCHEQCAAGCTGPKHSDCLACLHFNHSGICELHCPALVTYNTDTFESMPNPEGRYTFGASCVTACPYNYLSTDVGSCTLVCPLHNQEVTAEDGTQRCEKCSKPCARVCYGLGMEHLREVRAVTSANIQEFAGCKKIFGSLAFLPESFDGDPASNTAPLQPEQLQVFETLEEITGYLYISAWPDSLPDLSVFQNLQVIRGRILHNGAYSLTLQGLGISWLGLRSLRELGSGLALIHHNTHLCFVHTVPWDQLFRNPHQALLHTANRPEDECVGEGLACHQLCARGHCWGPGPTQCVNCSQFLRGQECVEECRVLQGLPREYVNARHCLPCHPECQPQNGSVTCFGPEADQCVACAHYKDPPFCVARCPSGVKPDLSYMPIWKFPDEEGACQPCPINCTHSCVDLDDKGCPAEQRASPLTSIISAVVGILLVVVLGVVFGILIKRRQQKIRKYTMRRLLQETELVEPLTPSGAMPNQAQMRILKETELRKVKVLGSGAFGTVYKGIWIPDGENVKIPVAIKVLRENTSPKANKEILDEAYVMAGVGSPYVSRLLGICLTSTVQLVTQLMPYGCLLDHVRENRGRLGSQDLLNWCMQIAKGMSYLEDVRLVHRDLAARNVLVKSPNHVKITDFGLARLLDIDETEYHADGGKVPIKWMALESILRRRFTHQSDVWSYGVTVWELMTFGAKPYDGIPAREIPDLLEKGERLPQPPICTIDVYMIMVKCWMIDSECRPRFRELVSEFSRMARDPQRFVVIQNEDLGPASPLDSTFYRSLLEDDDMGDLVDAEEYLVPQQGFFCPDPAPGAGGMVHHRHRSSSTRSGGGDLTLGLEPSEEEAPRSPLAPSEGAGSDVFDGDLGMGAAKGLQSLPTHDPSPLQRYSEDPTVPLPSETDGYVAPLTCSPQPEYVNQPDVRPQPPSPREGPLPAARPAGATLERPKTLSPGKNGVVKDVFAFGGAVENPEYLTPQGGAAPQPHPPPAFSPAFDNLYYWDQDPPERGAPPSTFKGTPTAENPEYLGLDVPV

On to `CN(C)C/C=C/C(=O)N1CCOc2c1ccc1ncnc(Nc3ccc(Oc4ccn5ncnc5c4)c(Cl)c3)c21` [Example 125, (E)-1-(10-((4-([1,2,4]triazolo[1,5-a]pyridin-7-yloxy)-3-chlorophenyl)amino)-2,3-dihydro-4H-[1,4]oxazino[2,3-f]quinazolin-4-yl)-4-(dimethylamino)but-2-en-1-one], for which the IC50 – broadly, the concentration at which inhibition is half-maximal – was not above 0.05 µM against HER2 kinase, 0.05 to 0.5 µM at EGFR kinase and not above 0.05 µM in the assay on BT474 cells.
For `CN1CCN(C/C=C/C(=O)N2CCOc3c2ccc2ncnc(Nc4ccc(Oc5ccn6ncnc6c5)c(Cl)c4)c32)CC1` [Example 126, (E)-1-(10-((4-([1,2,4]triazolo[1,5-a]pyridin-7-yloxy)-3-chlorophenyl)amino)-2,3-dihydro-4H-[1,4]oxazino[2,3-f]quinazolin-4-yl)-4-(4-methylpiperazin-1-yl)but-2-en-1-one], the IC50 against HER2 kinase, on EGFR kinase and in the assay with BT474 cells was not above 0.05 µM each time.
Consider `CC(C)N(C)C/C=C/C(=O)N1CCOc2c1ccc1ncnc(Nc3ccc(Oc4ccn5ncnc5c4)c(Cl)c3)c21` [Example 127, (E)-1-(10-((4-([1,2,4]triazolo[1,5-a]pyridin-7-yloxy)-3-chlorophenyl)amino)-2,3-dihydro-4H-[1,4]oxazino[2,3-f]quinazolin-4-yl)-4-(isopropyl(methyl)amino)but-2-en-1-one], for which the IC50 against HER2 kinase was not above 0.05 µM; on EGFR kinase, 0.05 to 0.5 µM; in the assay with BT474 cells it was not above 0.05 µM.
`O=C(/C=C/CN1CCCCC1)N1CCOc2c1ccc1ncnc(Nc3ccc(Oc4ccn5ncnc5c4)c(Cl)c3)c21` [Example 128, (E)-1-(10-((4-([1,2,4]triazolo[1,5-a]pyridin-7-yloxy)-3-chlorophenyl)amino)-2,3-dihydro-4H-[1,4]oxazino[2,3-f]quinazolin-4-yl)-4-(piperidin-1-yl)but-2-en-1-one]: the IC50 is not above 0.05 µM against HER2 kinase, 0.05 to 0.5 µM on EGFR kinase and not above 0.05 µM with BT474 cells.
As to `CN(C/C=C/C(=O)N1CCOc2c1ccc1ncnc(Nc3ccc(Oc4ccn5ncnc5c4)c(Cl)c3)c21)C1CCC1` [Example 129, (E)-1-(10-((4-([1,2,4]triazolo[1,5-a]pyridin-7-yloxy)-3-chlorophenyl)amino)-2,3-dihydro-4H-[1,4]oxazino[2,3-f]quinazolin-4-yl)-4-(cyclobutyl(methyl)amino)but-2-en-1-one], the IC50 against HER2 kinase is not above 0.05 µM; at EGFR kinase, 0.05 to 0.5 µM; with BT474 cells, not above 0.05 µM.
As for `COCCN(C)C/C=C/C(=O)N1CCOc2c1ccc1ncnc(Nc3ccc(Oc4ccn5ncnc5c4)c(Cl)c3)c21` [Example 130, (E)-1-(10-((4-([1,2,4]triazolo[1,5-a]pyridin-7-yloxy)-3-chlorophenyl)amino)-2,3-dihydro-4H-[1,4]oxazino[2,3-f]quinazolin-4-yl)-4-((2-methoxyethyl)(methyl)amino)but-2-en-1-one], the IC50 against HER2 kinase was not above 0.05 µM; against EGFR kinase, 0.05 to 0.5 µM; in the assay with BT474 cells it was not above 0.05 µM.
For the compound `CCN(CC)C/C=C/C(=O)N1CCOc2c1ccc1ncnc(Nc3ccc(Oc4ccn5ncnc5c4)c(Cl)c3)c21` [Example 131, (E)-1-(10-((4-([1,2,4]triazolo[1,5-a]pyridin-7-yloxy)-3-chlorophenyl)amino)-2,3-dihydro-4H-[1,4]oxazino[2,3-f]quinazolin-4-yl)-4-(diethylamino)but-2-en-1-one], the values for the IC50 at HER2 kinase, on EGFR kinase and with BT474 cells were not above 0.05 µM, 0.05 to 0.5 µM and not above 0.05 µM, respectively.
On to `Cc1cc(Nc2ncnc3ccc4c(c23)OCCN4C(=O)/C=C/CN2CCN(C)CC2)ccc1Oc1ccn2ncnc2c1` [Example 132, (E)-1-(10-((4-([1,2,4]triazolo[1,5-a]pyridin-7-yloxy)-3-methylphenyl)amino)-2,3-dihydro-4H-[1,4]oxazino[2,3-f]quinazolin-4-yl)-4-(4-methylpiperazin-1-yl)but-2-en-1-one], for which the half-inhibitory concentration (IC50) is not above 0.05 µM against HER2 kinase, 0.05 to 0.5 µM on EGFR kinase and not above 0.05 µM in the assay with BT474 cells.
As for `Cc1cc(Nc2ncnc3ccc4c(c23)OCCN4C(=O)/C=C/CN(C)C(C)C)ccc1Oc1ccn2ncnc2c1` [Example 133, (E)-1-(10-((4-([1,2,4]triazolo[1,5-a]pyridin-7-yloxy)-3-methylphenyl)amino)-2,3-dihydro-4H-[1,4]oxazino[2,3-f]quinazolin-4-yl)-4-(isopropyl(methyl)amino)but-2-en-1-one], the IC50 was not above 0.05 µM against HER2 kinase, 0.5 to 5 µM against EGFR kinase and not above 0.05 µM in the assay on BT474 cells.
Take `Cc1cc(Nc2ncnc3ccc4c(c23)OCCN4C(=O)/C=C/CN2CCCCC2)ccc1Oc1ccn2ncnc2c1` [Example 134, (E)-1-(10-((4-([1,2,4]triazolo[1,5-a]pyridin-7-yloxy)-3-methylphenyl)amino)-2,3-dihydro-4H-[1,4]oxazino[2,3-f]quinazolin-4-yl)-4-(piperidin-1-yl)but-2-en-1-one]: the concentration for half-maximal inhibition (IC50) on HER2 kinase is not above 0.05 µM; on EGFR kinase, 0.05 to 0.5 µM; in the assay on BT474 cells, not above 0.05 µM.
In the case of `Cc1cc(Nc2ncnc3ccc4c(c23)OCCN4C(=O)/C=C/CN(C)C2CCC2)ccc1Oc1ccn2ncnc2c1` [Example 135, (E)-1-(10-((4-([1,2,4]triazolo[1,5-a]pyridin-7-yloxy)-3-methylphenyl)amino)-2,3-dihydro-4H-[1,4]oxazino[2,3-f]quinazolin-4-yl)-4-(cyclobutyl(methyl)amino)but-2-en-1-one], the IC50 against HER2 kinase is not above 0.05 µM; at EGFR kinase, 0.05 to 0.5 µM; with BT474 cells it was not above 0.05 µM.
Regarding `COCCN(C)C/C=C/C(=O)N1CCOc2c1ccc1ncnc(Nc3ccc(Oc4ccn5ncnc5c4)c(C)c3)c21` [Example 136, (E)-1-(10-((4-([1,2,4]triazolo[1,5-a]pyridin-7-yloxy)-3-methylphenyl)amino)-2,3-dihydro-4H-[1,4]oxazino[2,3-f]quinazolin-4-yl)-4-((2-methoxyethyl)(methyl)amino)but-2-en-1-one], the IC50 is not above 0.05 µM on HER2 kinase, 0.05 to 0.5 µM against EGFR kinase and not above 0.05 µM in the assay on BT474 cells.
With `CCN(CC)C/C=C/C(=O)N1CCOc2c1ccc1ncnc(Nc3ccc(Oc4ccn5ncnc5c4)c(C)c3)c21` [Example 137, (E)-1-(10-((4-([1,2,4]triazolo[1,5-a]pyridin-7-yloxy)-3-methylphenyl)amino)-2,3-dihydro-4H-[1,4]oxazino[2,3-f]quinazolin-4-yl)-4-(diethylamino)but-2-en-1-one], the values for the concentration for half-maximal inhibition (IC50) on HER2 kinase, against EGFR kinase and in the assay with BT474 cells were not above 0.05 µM, 0.5 to 5 µM and not above 0.05 µM, respectively.

The values above are taken from patent US11548900B2, “Oxazino-quinazoline and oxazino-quinoline type compound, preparation method and uses thereof” (BEIJING SCITECH-MQ PHARMACEUTICALS LIMITED, priority 2018, dated 2023).
